IC50 data for nine compounds are collected here from ChEMBL document CHEMBL1144003, “Trypanocidal activity of a new pterocarpan and other secondary metabolites of plants from Northeastern Brazil flora” (Bioorg Med Chem, 2008).

SMILES strings stand for the structures. Converted amounts (≈) assume the structure as drawn.

As usually defined, the IC50 is the concentration needed to halve the response being measured.

For one experiment, the system named is PBL. Put plainly: Cytotoxicity against human PBL cells after 72 hrs by alamar blue assay. The experiment is classed as cell-based. (Alamar Blue is a resazurin reagent that responds to reducing activity.)
For the next experiment, the system named is Trypanosoma cruzi. Put plainly: Trypanocidal activity against Trypanosoma cruzi Berenice after 72 hrs. It counts as functional, organism-based.
Another experiment has as its system CCRF-CEM. As to the kind of experiment: Antiproliferative activity against human CEM cells. It counts as functional, cell-based.
A further experiment has as its system B16. As to the kind of experiment: Antiproliferative activity against mouse B16 cells. It counts as functional, cell-based.
The next experiment has as its system HCT-8. Put plainly: Antiproliferative activity against human HCT8 cells. It counts as functional, cell-based.
In a further experiment the test system is HL-60. Put plainly: Antiproliferative activity against human HL60 cells. It counts as functional, cell-based.

`CC(C)=CCC/C(C)=C/Cc1c(O)ccc(C(=O)/C=C/c2ccc(O)c(O)c2)c1O`: the IC50 worked out at 23 µg/mL (≈ 56.4 µM) in the experiment on PBL and 10.6 µg/mL (≈ 25.9 µM) in the experiment with Trypanosoma cruzi.
For `CC(C)=CCc1c(O)ccc2c1OC[C@H]1c3cc4c(cc3O[C@@H]21)OCO4` the same measures were over 50 µg/mL and 13.3 µg/mL (≈ 37.7 µM).
Take `CC(C)=CCC/C(C)=C/Cc1cc2c(cc1O)OC[C@H]1c3cc4c(cc3O[C@@H]21)OCO4`: the IC50 in the experiment on PBL was over 50 µg/mL; with Trypanosoma cruzi it was 12.2 µg/mL (≈ 29 µM).
The corresponding values for `COC1=C(OC)C(=O)C2=C(C[C@H]3[C@](C)(C2)C[C@@H]2C[C@@]23C)C1=O` (relative stereo) are 28.4 µg/mL (≈ 93.8 µM) and 1.3 µg/mL (≈ 4.3 µM).
On to `COc1cccc2c1C(=O)c1c(O)c3c(c(O)c1C2=O)C[C@@](O)(C(=O)CO)C[C@@H]3O[C@H]1C[C@H](N)[C@H](O)[C@H](C)O1` [DOXORUBICIN], for which, in the experiment with PBL, the IC50 was determined as 0.97 µg/mL (≈ 1.78 µM).
Regarding `C[C@@]12C[C@H]3OC(=O)[C@@H]1CO[C@]14O[C@]5([C@H]2C1=O)[C@@](O)(CC[C@H]1[C@H]4C[C@H]2O[C@]24CC=CC(=O)[C@]14C)C(=O)O[C@@]35C` [PHYSALIN F], the IC50 in the experiment on CCRF-CEM is 0.5 µg/mL (≈ 0.95 µM); in the experiment with B16, 0.5 µg/mL (≈ 0.95 µM); in the experiment with PBL, 4.23 µg/mL (≈ 8.03 µM); in the experiment on Trypanosoma cruzi it was 9.4 µg/mL (≈ 17.9 µM); in the experiment on HCT-8, 0.5 µg/mL (≈ 0.95 µM); with HL-60, 0.5 µg/mL (≈ 0.95 µM).
Take `CC1=C(C)C(=O)O[C@@H]([C@]2(C)OC(=O)[C@]34CC[C@H]5[C@@H](C[C@H]6O[C@]67[C@@H](O)C=CC(=O)[C@]57C)[C@@H]3CC[C@H]24)C1` [WITHAPHYSALIN M]: in the experiment with Trypanosoma cruzi, half-maximal inhibition (IC50) was put at 0.7 µg/mL (≈ 1.45 µM).
Turning to `CC1=C(C)C(=O)O[C@@H]([C@]2(C)OC(=O)[C@]34CC[C@H]5[C@@H](C[C@H]6O[C@]67[C@@H](O)CCC(=O)[C@]57C)[C@@H]3CC[C@H]24)C1` [WITHAPHYSALIN N], in the experiment with Trypanosoma cruzi, the IC50 is 6.4 µg/mL (≈ 13.2 µM).
`CCOC1O[C@@](C)([C@H]2CC(C)=C(C)C(=O)O2)[C@H]2CC[C@H]3[C@@H]4C[C@H]5O[C@]56[C@@H](O)C=CC(=O)[C@]6(C)[C@H]4CC[C@]123` (stereo partly drawn) [WITHAPHYSALIN O]: in the experiment on Trypanosoma cruzi, the IC50 was 0.3 µg/mL (≈ 0.585 µM).
